The Ki is the dissociation constant of the complex between target and ligand, obtained from inhibition or displacement.

The values that follow come from article PMC4166935, “Toward Biophysical Probes for the 5-HT3 Receptor: Structure−Activity Relationship Study of Granisetron Derivatives” (Journal of Medicinal Chemistry, 2010).

Assay [1] has as its target T1, human 5-HT3A receptor (Homo sapiens, UniProt P46098).
T1 construct: expressed in transfected cells; cell membranes
T1 sequence (P46098 24-478): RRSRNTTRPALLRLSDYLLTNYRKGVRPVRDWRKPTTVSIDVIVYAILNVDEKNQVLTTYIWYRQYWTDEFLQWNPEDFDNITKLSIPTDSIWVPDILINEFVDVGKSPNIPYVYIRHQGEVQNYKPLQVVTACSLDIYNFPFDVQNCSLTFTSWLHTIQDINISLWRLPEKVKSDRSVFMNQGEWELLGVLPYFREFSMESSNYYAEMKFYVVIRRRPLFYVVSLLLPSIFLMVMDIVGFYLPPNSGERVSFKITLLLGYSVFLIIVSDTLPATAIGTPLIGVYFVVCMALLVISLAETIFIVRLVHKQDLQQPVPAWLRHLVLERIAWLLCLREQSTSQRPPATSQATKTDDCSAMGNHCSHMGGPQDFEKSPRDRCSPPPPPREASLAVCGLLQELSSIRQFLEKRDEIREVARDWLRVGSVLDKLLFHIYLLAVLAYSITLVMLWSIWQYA
The assay is described as follows: [3H]granisetron competition binding, HEK293 cell membranes stably expressing h5-HT3AR. Here is the method:
Materials and cell culture maintenance
All cell culture reagents were obtained from Gibco BRL (Paisley, UK), except foetal calf serum which was from Labtech International (Ringmer, UK). [3H]granisetron (63.5 Ci/mmol) was from PerkinElmer (Boston, Massachusetts, USA).
Human embryonic kidney (HEK)-293 cells were maintained on 90 mm tissue culture plates at 37°C and 7% CO2 in a humidified atmosphere. Cells were cultured in DMEM:F12 (Dulbecco’s modified Eagle medium/nutrient mix F12 (1:1)) with GlutaMAX™ I containing 10% foetal calf serum and passaged when 90% confluent.
Receptor expression and radioligand binding
HEK-293 cells stably expressing the human 5-HT3A subunit (accession number: P46098) were scraped into 1 mL of ice-cold HEPES buffer (10 mM, pH 7.4) and frozen at –20°C.
After thawing, they were spun at 13,000 rpm for 1 min, resuspended and 50 μg of cell […]
Competition binding (12 points) was performed on at least three separate plates of cells.
Nonspecific binding was determined using 10 μM quipazine or other competitive antagonist.
Reactions were incubated for at least 1 h at 4°C and terminated by vacuum filtration, using a Brandel cell harvester, onto GF/B filters presoaked in 0.3% polyethyleneimine. Radioactivity was determined by scintillation counting using a Beckman LS6000SC (Fullerton, CA, USA).
Competition binding data were analyzed by iterative curve fitting (GraphPad Prism v3.02, GraphPad Software, San Diego, CA, USA), according to the equation: […]
where [L] is the concentration of ligand present, BL is the binding in the presence of ligand […]
the concentration of L which gives a binding equal to (Bmax + Bmin)/2, and nH is the Hill coefficient. Ki values were calculated from IC50 values using the Cheng–Prusoff equation: […]
where Ki is the equilibrium dissociation constant for binding of the unlabelled antagonist, [L] is the concentration of radioligand and Kd is the equilibrium dissociation constant of the radioligand. Values are presented as mean ± SEM.

For assay [2], the system named is 5-HT3 receptor. Also on record: method as in earlier work. The following applies: cited from earlier work.
Assay [3] deals with T2, h5-HT3AR in HEK293 cells (Homo sapiens, UniProt P46098).
T2 sequence (P46098 24-478): T1 sequence (P46098 24-478)
The assay is described as follows: Confocal labeling of HEK293 cells stably transfected with h5-HT3AR with fluorescent probe 16. Type of assay: cell-based. The following applies: 10 μM quipazine with 10 nM 16 for 10 min. Here is the method: To confirm the validity of this hypothesis, we attached a BODIPY FL fluorophore at this position (Scheme 3) to create fluorescent analogue 16 (BFL-GR). […] Similar images have previously been obtained using fluorescein, rhodamine 6G, and cyanine Cy5 dyes attached via a linker at a similar position of ondansetron, another high-affinity 5-HT3AR antagonist.[30]
Figure 3 Labeling of HEK293 cells stably transfected with h5-HT3AR with 16. Cells were incubated in 10 nM 16 for 10 min with (B) or without (A) 10 μM quipazine, washed, mounted, and then observed in a confocal microscope.[31] […] Unlabeled areas are nuclei. […] Scale bar represents 20 μm.

The mark [4] stands for this setting: competition with 1 nM [3H]granisetron, HEK293 cell membranes stably expressing h5-HT3AR, read-out: Ki (nM) mean ± SEM.
Where [5] appears, read: Ki (nM) mean ± SEM, competition with 1 nM [3H]granisetron, HEK293 cell membranes stably expressing h5-HT3AR.

Where two headings read alike, the source gives them in different places.

For `CN1C2CCCC1CC(NC(=O)c1nn(C)c3ccc(OCc4ccccc4)cc13)C2` (stereo not drawn) [3c], the Ki in assay [1] (setting [4]) was 3030 ± 956 nM.

`CN1C2CCCC1CC(NC(=O)c1nn(C)c3cc(OCc4ccccc4)ccc13)C2` (stereo not drawn) [4c]: the Ki in assay [1] (setting [4]) turned out to be 749 ± 183 nM.

Regarding `CN1C2CCCC1CC(NC(=O)c1nn(C)c3c(O)cccc13)C2` (stereo not drawn) [5a], the “potency compared to granisetron” value in assay [2] is “as potent as granisetron”.

With `COc1cccc2c1c(C(=O)NC1CC3CCCC(C1)N3C)nn2C` (stereo not drawn) [2b], affinity in assay [1] was put at a Ki of 26.3 ± 7.4 nM.

`CN1C2CCCC1CC(NC(=O)c1nn(C)c3cccc(OCc4ccccc4)c13)C2` (stereo not drawn) [2c] gave a Ki in assay [1] (setting [5]) of 375 ± 61 nM.

As to `c1ccc2nc(N3CCNCC3)ccc2c1` [Quipazine, quipazine], in assay [3], the “displacement of 16 from its binding sites” value is “has displaced 16 from its binding sites”.

`COc1cccc2c(C(=O)NC3CC4CCCC(C3)N4C)nn(C)c12` (stereo not drawn) [5b] showed a Ki in assay [1] of 71.1 ± 8 nM.

`CN1C2CCCC1CC(NC(=O)c1nn(C)c3c(OCc4ccccc4)cccc13)C2` (stereo not drawn) [5c] returned a Ki in assay [1] (setting [5]) of 0.23 ± 0.03 nM. Further, the “affinity for 5-HT3AR compared to 1” value in assay [1] (comparison with granisetron (1)) is on record as “equal or exceed the affinity measured for 1”.
